Test results: patent EP0007294A2, “Membrane stabilizing compounds having beta-receptor blocking activity, their preparation, method for treatment of arrhythmic conditions, and pharmaceutical preparations containing same” (priority 1978, dated 1980)

Tested on: not listed separately
Assay: Alternative chloroform test on mice: ventricular tachycardia inhibition and ataxia
Type: in vivo
Settings: mouse, in vivo, sc
Method: (§1) In an alternative chloroform test on mice the ventricular tachycardia inhibition by the test compounds are observed. Thereby the test solution is given subcutaneous and the animal is observed for CNS-effects for 20 min. The mouse is put into a chamber with chloroform until it stops breathing (approx 30 sec.). The animal is then secured on a cork-board and ECG is monitored. If the ventricular rythm is less than 520 beats per min., the animal was protected against ventricular tachycardia. Groups of 10 animals were tested for each dose-level'and the ED50-values have been calculated therefrom. During the test the side-effect ataxia (incordination of movements) is observed.
(§2) In Table 5, as shown, the new compounds tested exerted antiarrhythmic effects also in this te-st.
COCCc1ccc(OCC(O)CNC(C)C)cc1 (centres unmarked) [Metoprolol] gave a TD50 at 20 min greater than 50 mg/kg. Compound COCc1ccc(OCC(O)CNCCc2ccccc2)cc1 (centres unmarked) [Ex. 7] has a TD50 at 20 min of roughly 100 mg/kg. For COCCc1ccc(OCC(O)CNCCCCc2ccc(OC)c(OC)c2)cc1 (centres unmarked) [Ex. 15], the TD50 at 20 min was greater than 6.3 mg/kg. In the case of COCc1ccc(OCC(O)CNCc2ccccc2)cc1 (centres unmarked) [Ex. 6, 3-phenylmethylamino-1-[4-methoxymgthylphenoxy]-propanol-2], the TD50 at 20 min is reported as roughly 70 mg/kg. In the case of COCCc1ccc(OCC(O)CNCCCc2ccccc2)cc1 (centres unmarked) [Ex. 10, 3-(3-phenylpropylamino)-1-[4-(2-methoxyethyl)phenoxy]-propanol-2], the TD50 at 20 min is reported as greater than 50 mg/kg. Compound Cc1cccc(C)c1NC(=O)C(C)N (centres unmarked) [Tocainide, reference compound] has a TD50 at 20 min of 130 mg/kg. With COCCc1ccc(OCC(O)CNCc2ccccc2)cc1 (centres unmarked) [Ex. 9, 3-phenylmethylamino-1-[4-(2-methoxyethyl)phenoxy]-propanol-2] the TD50 at 20 min was 60 mg/kg.

Same assay, conditions: mouse, in vivo; sc.; mice, observed for 20 min; read-out: Ataxia ED50
Compound CC(C)NC[C@@H](O)COc1cccc2ccccc12 [D-Propranolol] has a TD50 at 20 min of roughly 30 mg/kg. COCCc1ccc(OCC(O)CNCCOc2ccccc2)cc1 (centres unmarked) [Ex. 13, 3-[2-phenoxyethylamino]-1-[4-(2-methoxyethyl)phenoxy]-propanol--2] showed a TD50 at 20 min greater than 12 mg/kg.

Tested on: chloroform induced ventricular tachy-cardia
Assay: as above
Type: in vivo
Settings: Mus musculus; sc.; mice, chloroform; groups of 10 animals per dose-level
Method: as §1, §2
With CC(C)NC[C@@H](O)COc1cccc2ccccc12 [D-Propranolol] the ED50 was roughly 8 mg/kg. Work on COCCc1ccc(OCC(O)CNC(C)C)cc1 (centres unmarked) [Metoprolol] yielded an ED50 of 2.6 mg/kg. With COCc1ccc(OCC(O)CNCCc2ccccc2)cc1 (centres unmarked) [Ex. 7] the ED50 was roughly 50 mg/kg. COCCc1ccc(OCC(O)CNCCCCc2ccc(OC)c(OC)c2)cc1 (centres unmarked) [Ex. 15] showed an ED50 of 1.2 mg/kg. For COCc1ccc(OCC(O)CNCc2ccccc2)cc1 (centres unmarked) [Ex. 6, 3-phenylmethylamino-1-[4-methoxymgthylphenoxy]-propanol-2], the ED50 was roughly 200 mg/kg. With COCCc1ccc(OCC(O)CNCCOc2ccccc2)cc1 (centres unmarked) [Ex. 13, 3-[2-phenoxyethylamino]-1-[4-(2-methoxyethyl)phenoxy]-propanol--2] the ED50 was 3 mg/kg. COCCc1ccc(OCC(O)CNCCCc2ccccc2)cc1 (centres unmarked) [Ex. 10, 3-(3-phenylpropylamino)-1-[4-(2-methoxyethyl)phenoxy]-propanol-2] gave an ED50 of 3 mg/kg. Cc1cccc(C)c1NC(=O)C(C)N (centres unmarked) [Tocainide, reference compound] showed an ED50 of 90 mg/kg. Compound COCCc1ccc(OCC(O)CNCc2ccccc2)cc1 (centres unmarked) [Ex. 9, 3-phenylmethylamino-1-[4-(2-methoxyethyl)phenoxy]-propanol-2] has an ED50 of 35 mg/kg.

Tested on: ouabain-induced arrhythmias
Assay: Ouabain-induced arrhythmias in anesthetized guinea-pigs
Type: in vivo
Settings: animals with antiarrhythmic effect / animals tested; dose 0.03 mg/kg i.v.
Method: Guinea-pigs of either.sex (300-400 g) were anesthetized with urethane 1,4 g/kg i.p. and tracheotomized. ECG, lead II was picked up with needle electrodes and was registered continuously throughout the experiment. Two i.v. catheters were inserted: one for the administration of ouabain, the other for the test solution.
The experimental design for the study of antiarrhythmic activities is schematically shown in the head of Table 2. The arrhythmia was induced by automatic infusion of ouabain, 18 µg/kg/60" every two minutes for twelve minutes and thereafter 9 µg/kg/30" every two minutes throughout the whole experiment and the infusion was not stopped until asystole occurred. As soon as the frequency of ventricular premature beats (VPB) had passed 50 per cent, the test solution was given i.v. (0,2 ml/min) during 2 min. (see head of Table 2).
For COCCc1ccc(OCC(O)CNC(C)C)cc1 (centres unmarked) [Metoprolol], the “A-A EFFECT IN NUMBER OF ANIMALS” value was 6/6.

Same assay, conditions: animals with antiarrhythmic effect / animals tested; dose 0.1 mg/kg i.v.
In the case of COCCc1ccc(OCC(O)CNC(C)C)cc1 (centres unmarked) [Metoprolol], the “A-A EFFECT IN NUMBER OF ANIMALS” value is reported as 6/6.

Same assay, conditions: animals with antiarrhythmic effect / animals tested; dose 0.3 mg/kg i.v.
In the case of CC(C)NC[C@@H](O)COc1cccc2ccccc12 [D-Propranolol], the “A-A EFFECT IN NUMBER OF ANIMALS” value is reported as 6/8. In the case of COCCc1ccc(OCC(O)CNC(C)C)cc1 (centres unmarked) [Metoprolol], the “A-A EFFECT IN NUMBER OF ANIMALS” value is reported as 6/6.

Same assay, conditions: animals with antiarrhythmic effect / animals tested; dose 1.0 mg/kg i.v.
With CC(C)NC[C@@H](O)COc1cccc2ccccc12 [D-Propranolol] the “A-A EFFECT IN NUMBER OF ANIMALS” value was 6/6.

Same assay, conditions: frequency of ventricular premature beats after test solution; dose 0.03 mg/kg i.v.
In the case of COCCc1ccc(OCC(O)CNC(C)C)cc1 (centres unmarked) [Metoprolol], the “LOWEST FREQUENCY” value is reported as 34±5%.

Same assay, conditions: frequency of ventricular premature beats after test solution; dose 0.1 mg/kg i.v.
With COCCc1ccc(OCC(O)CNC(C)C)cc1 (centres unmarked) [Metoprolol] the “LOWEST FREQUENCY” value was 16±7%.

Same assay, conditions: frequency of ventricular premature beats after test solution; dose 0.3 mg/kg i.v.
For CC(C)NC[C@@H](O)COc1cccc2ccccc12 [D-Propranolol], the “LOWEST FREQUENCY” value was 36±5%. With COCCc1ccc(OCC(O)CNC(C)C)cc1 (centres unmarked) [Metoprolol] the “LOWEST FREQUENCY” value was 1±1%.

Same assay, conditions: frequency of ventricular premature beats after test solution; dose 1.0 mg/kg i.v.
For CC(C)NC[C@@H](O)COc1cccc2ccccc12 [D-Propranolol], the “LOWEST FREQUENCY” value was 5±3%.

Same assay, conditions: time of asystole under continued ouabain; dose 0.03 mg/kg i.v.
For COCCc1ccc(OCC(O)CNC(C)C)cc1 (centres unmarked) [Metoprolol], the ASYSTOLE was 35 ± 4 min.

Same assay, conditions: time of asystole under continued ouabain; dose 0.1 mg/kg i.v.
Work on COCCc1ccc(OCC(O)CNC(C)C)cc1 (centres unmarked) [Metoprolol] yielded an ASYSTOLE of 38 ± 5 min.

Same assay, conditions: time of asystole under continued ouabain; dose 0.3 mg/kg i.v.
CC(C)NC[C@@H](O)COc1cccc2ccccc12 [D-Propranolol] gave an ASYSTOLE of 22 ± 1 min. In the case of COCCc1ccc(OCC(O)CNC(C)C)cc1 (centres unmarked) [Metoprolol], the ASYSTOLE is reported as 48 ± 6 min.

Same assay, conditions: time of asystole under continued ouabain; dose 1.0 mg/kg i.v.
For CC(C)NC[C@@H](O)COc1cccc2ccccc12 [D-Propranolol], the ASYSTOLE was 29 ± 1 min.

Same assay, conditions: time of ventricular fibrillation under continued ouabain; dose 0.03 mg/kg i.v.
In the case of COCCc1ccc(OCC(O)CNC(C)C)cc1 (centres unmarked) [Metoprolol], the V-FIB is reported as 25 ± 3 min.

Same assay, conditions: time of ventricular fibrillation under continued ouabain; dose 0.1 mg/kg i.v.
For COCCc1ccc(OCC(O)CNC(C)C)cc1 (centres unmarked) [Metoprolol], the V-FIB was 32 ± 5 min.

Same assay, conditions: time of ventricular fibrillation under continued ouabain; dose 0.3 mg/kg i.v.
With CC(C)NC[C@@H](O)COc1cccc2ccccc12 [D-Propranolol] the V-FIB was 14 ± 1 min. Compound COCCc1ccc(OCC(O)CNC(C)C)cc1 (centres unmarked) [Metoprolol] has a V-FIB of 37 ± 3 min.

Same assay, conditions: time of ventricular fibrillation under continued ouabain; dose 1.0 mg/kg i.v.
CC(C)NC[C@@H](O)COc1cccc2ccccc12 [D-Propranolol] showed a V-FIB of 23 ± 2 min.

Tested on: not listed separately
Assay: Conscious dogs with ligation of a coronary artery according to Harris: ectopics and convulsions
Type: in vivo
Settings: dog, in vivo, iv
Excerpt: (§3) Male beagle dogs, 7-13 kg, undergo two days prior to the test a surgical ligation of a coronary artery. On the day of the test the conscious dog is secured in a canvas sling in a standing position and given increasing doses of the test compounds by intravenous administration. ECG, blood pressure etc are monitored and attention is paid to all CNS-effects. The dogs have almost 100 percent of ectopics prior to administration of the compound to be tested. Effects of the test drug on the frequency of ectopics are calculated from ECG. The accumulative end doses giving 50% and 90% reduction of ectopics as well as the ED50 values which give convulsions (side-effect) are measured and given below in Table 3. The value for convulsions is a mean value for 3-5 dogs.
(§4) x) The value given is the final value in a series of doses 0.5 + 1 + 2 + 4 + 8 mg/kg i.v. giving 50% reduction of ectopics. 30 min interval between doses.
(§5) Table 3: Antiarrythmic effect and CNS-effects of four β-receptor blockers, a membrane stabilizer, and ten new compounds with combined β-blocking and membrane stabilizing effect.
COCCc1ccc(OCC(O)CNC(C)C)cc1 (centres unmarked) [Metoprolol] showed a TD50 greater than 8 mg/kg. Work on COCc1ccc(OCC(O)CNCCc2ccccc2)cc1 (centres unmarked) [Ex. 7] yielded a TD50 greater than 8 mg/kg. Compound COCCc1ccc(OCC(O)CNCCCCc2ccc(OC)c(OC)c2)cc1 (centres unmarked) [Ex. 15] has a TD50 of 6 mg/kg. COCc1ccc(OCC(O)CNCc2ccccc2)cc1 (centres unmarked) [Ex. 6, 3-phenylmethylamino-1-[4-methoxymgthylphenoxy]-propanol-2] showed a TD50 of 14 mg/kg. COCCc1ccc(OCC(O)CNCCCc2ccccc2)cc1 (centres unmarked) [Ex. 10, 3-(3-phenylpropylamino)-1-[4-(2-methoxyethyl)phenoxy]-propanol-2] gave a TD50 greater than 8 mg/kg. For Cc1cccc(C)c1NC(=O)C(C)N (centres unmarked) [Tocainide, reference compound], the TD50 was greater than 8 mg/kg. COCCc1ccc(OCC(O)CNCc2ccccc2)cc1 (centres unmarked) [Ex. 9, 3-phenylmethylamino-1-[4-(2-methoxyethyl)phenoxy]-propanol-2] gave a TD50 of 8 mg/kg.

Same assay, conditions: in vivo; iv.; conscious dog; mean value for 3-5 dogs; read-out: ED50 Convulsive
Compound CC(C)NC[C@@H](O)COc1cccc2ccccc12 [D-Propranolol] has a TD50 of 8 mg/kg. COCCc1ccc(OCC(O)CNCCOc2ccccc2)cc1 (centres unmarked) [Ex. 13, 3-[2-phenoxyethylamino]-1-[4-(2-methoxyethyl)phenoxy]-propanol--2] showed a TD50 of 8 mg/kg.

Tested on: ectopics
Assay: as above
Type: in vivo
Settings: Canis lupus familiaris; iv.; accumulative end dose giving 50% reduction of ectopics; read-out: Conscious dog Harris ligation Ectopics -50%
Excerpt: as §3, §4, §5
In the case of CC(C)NC[C@@H](O)COc1cccc2ccccc12 [D-Propranolol], the ED50 is reported as 1 mg/kg. For COCCc1ccc(OCC(O)CNC(C)C)cc1 (centres unmarked) [Metoprolol], the ED50 was 4 mg/kg. COCc1ccc(OCC(O)CNCCc2ccccc2)cc1 (centres unmarked) [Ex. 7] showed an ED50 of 4 mg/kg. Work on COCCc1ccc(OCC(O)CNCCCCc2ccc(OC)c(OC)c2)cc1 (centres unmarked) [Ex. 15] yielded an ED50 of 1 mg/kg. In the case of COCc1ccc(OCC(O)CNCc2ccccc2)cc1 (centres unmarked) [Ex. 6, 3-phenylmethylamino-1-[4-methoxymgthylphenoxy]-propanol-2], the ED50 is reported as 8 mg/kg. Work on COCCc1ccc(OCC(O)CNCCOc2ccccc2)cc1 (centres unmarked) [Ex. 13, 3-[2-phenoxyethylamino]-1-[4-(2-methoxyethyl)phenoxy]-propanol--2] yielded an ED50 of 4 mg/kg. Compound COCCc1ccc(OCC(O)CNCCCc2ccccc2)cc1 (centres unmarked) [Ex. 10, 3-(3-phenylpropylamino)-1-[4-(2-methoxyethyl)phenoxy]-propanol-2] has an ED50 of 2 mg/kg. For Cc1cccc(C)c1NC(=O)C(C)N (centres unmarked) [Tocainide, reference compound], the ED50 was 4 mg/kg. For COCCc1ccc(OCC(O)CNCc2ccccc2)cc1 (centres unmarked) [Ex. 9, 3-phenylmethylamino-1-[4-(2-methoxyethyl)phenoxy]-propanol-2], the ED50 was 2 mg/kg.

Same assay, conditions: Canis lupus familiaris; iv.; accumulative end dose giving 90% reduction of ectopics; read-out: Conscious dog Harris ligation Ectopics -90%
Compound CC(C)NC[C@@H](O)COc1cccc2ccccc12 [D-Propranolol] has an ED90 of 4 mg/kg. For COCCc1ccc(OCC(O)CNC(C)C)cc1 (centres unmarked) [Metoprolol], the ED90 was 8 mg/kg. COCc1ccc(OCC(O)CNCCc2ccccc2)cc1 (centres unmarked) [Ex. 7] gave an ED90 of 8 mg/kg. COCCc1ccc(OCC(O)CNCCCCc2ccc(OC)c(OC)c2)cc1 (centres unmarked) [Ex. 15] gave an ED90 of 4 mg/kg. COCc1ccc(OCC(O)CNCc2ccccc2)cc1 (centres unmarked) [Ex. 6, 3-phenylmethylamino-1-[4-methoxymgthylphenoxy]-propanol-2] gave an ED90 greater than 16 mg/kg. In the case of COCCc1ccc(OCC(O)CNCCOc2ccccc2)cc1 (centres unmarked) [Ex. 13, 3-[2-phenoxyethylamino]-1-[4-(2-methoxyethyl)phenoxy]-propanol--2], the ED90 is reported as 4 mg/kg. In the case of COCCc1ccc(OCC(O)CNCCCc2ccccc2)cc1 (centres unmarked) [Ex. 10, 3-(3-phenylpropylamino)-1-[4-(2-methoxyethyl)phenoxy]-propanol-2], the ED90 is reported as 4 mg/kg. Cc1cccc(C)c1NC(=O)C(C)N (centres unmarked) [Tocainide, reference compound] showed an ED90 of 8 mg/kg. Compound COCCc1ccc(OCC(O)CNCc2ccccc2)cc1 (centres unmarked) [Ex. 9, 3-phenylmethylamino-1-[4-(2-methoxyethyl)phenoxy]-propanol-2] has an ED90 of 4 mg/kg.
